In general, melting point refers to the temperature of the solid-liquid transition. The IC50 is the concentration needed to halve the response being measured. The low end stands for greater potency, the high end for weaker potency. As a reminder, the inhibition is the relative decrease from the control value, in per cent.

Where a name gives a salt, the structure may show the parent alone.

For data set [1], the target named is T1, human cloned dopamine D4.2-receptors (Homo sapiens, UniProt P21917, DEL265-296).
T1 construct: expressed in transfected cells; host or cells: CHO cells
T1 sequence (P21917 with tags, fused parts or gaps DEL265-296): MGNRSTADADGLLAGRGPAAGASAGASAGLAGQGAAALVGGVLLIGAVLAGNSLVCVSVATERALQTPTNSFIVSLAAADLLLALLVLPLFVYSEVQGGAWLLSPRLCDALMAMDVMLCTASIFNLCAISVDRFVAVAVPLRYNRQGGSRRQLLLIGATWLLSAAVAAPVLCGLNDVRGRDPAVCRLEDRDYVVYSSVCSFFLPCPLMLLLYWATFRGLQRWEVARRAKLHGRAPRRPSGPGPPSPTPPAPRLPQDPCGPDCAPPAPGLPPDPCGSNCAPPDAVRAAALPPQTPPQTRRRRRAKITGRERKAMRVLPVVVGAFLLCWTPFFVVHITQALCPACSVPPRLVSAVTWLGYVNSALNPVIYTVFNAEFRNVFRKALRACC
In words: Inhibition of the binding of 3H-YM-09151-2 to human dopamine D4 receptors. Conditions: [3H]YM-09151-2 0.06 nM; for inhibition at 0.1 µM: at 100 nM, CHO-cell membranes, human D4.2. As for the experimental part: Inhibition of the Binding of ^3H-YM-09151-2 to Human Dopamine D4 Receptors
By this method, the inhibition by drugs of the binding of [^3H]YM-09151-2 (0.06 nM) to membranes of human cloned dopamine D4.2-receptors expressed in CHO-cells is determined in vitro. Method modified from NEN Life Science Products, Inc., technical data certificate PC2533-10/96.

Data set [2] deals with T2, cloned human 5-HT1A-receptors (Homo sapiens, UniProt P08908).
T2 construct: expressed in transfected cells; host or cells: HeLa cells (HA7)
T2 sequence (P08908 1-422): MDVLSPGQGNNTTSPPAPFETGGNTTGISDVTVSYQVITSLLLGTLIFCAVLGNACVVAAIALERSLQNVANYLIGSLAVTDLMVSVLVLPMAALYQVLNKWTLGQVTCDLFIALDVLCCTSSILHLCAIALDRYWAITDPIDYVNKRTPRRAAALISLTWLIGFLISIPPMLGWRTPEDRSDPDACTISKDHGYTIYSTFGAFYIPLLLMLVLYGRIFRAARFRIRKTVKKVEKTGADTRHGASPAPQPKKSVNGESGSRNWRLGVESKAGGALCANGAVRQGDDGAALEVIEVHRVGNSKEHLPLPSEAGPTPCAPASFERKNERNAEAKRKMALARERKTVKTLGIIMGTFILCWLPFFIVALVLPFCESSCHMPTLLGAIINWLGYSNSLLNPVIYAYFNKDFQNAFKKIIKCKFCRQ
In words: Inhibition of 3H-5-CT binding to human 5-HT1A receptors. Conditions: transfected HeLa cells (HA7), 15 minutes at 37° C., pH 7.7; for inhibition at 0.05 µM: at 50 nM. The method, then:
The affinity of the compounds of the invention to 5-HT1A receptors was determined by measuring the inhibition of binding of a radioactive ligand at 5-HT1A-receptors as described in the following test:
Inhibition of ^3H-5-CT Binding to Human 5-HT1A Receptors.
By this method, the inhibition by drugs of the binding of the 5-HT1A-agonist ^3H-5-carboxamido tryptamine (^3H-5-CT) to cloned human 5-HT1A-receptors stably expressed in transfected HeLa cells (HA7) (Fargin, A. et al. J. Biol. Chem. 1989, 264, 14848) is determined in vitro. The assay was performed as a modification of the method described by Harrington, M. A. et al. J. Pharmacol. Exp. Ther. 1994, 268, 1098. Human 5-HT1A-receptors (40 μg of cell homogenate) were incubated for 15 minutes at 37° C. in 50 mM Tris buffer at pH 7.7 in the presence of ^3H-5-CT. Non-specific binding was determined by including 10 μM of metergoline. The reaction was terminated by rapid filtration through Unifilter GF/B filters on a Tomtec Cell Harvester. Filters were counted in a Packard Top Counter.

The molecule `Brc1ccccc1SCCCN1CCN(c2cccc3[nH]ccc23)CC1` (as salt: oxalate) [Compound 2b, 4-(4-[3-(2-Bromo-phenylsulfanyl)-propyl]-piperazin-1-yl}-1H-indole] returned a melting point of 163 to 166 °C.
As to `Brc1ccccc1OCCCN1CCN(c2cccc3[nH]ccc23)CC1` (as salt: oxalate) [Compound 2c, 4-{4-[3-(2-Bromo-phenoxy)-propyl]-piperazin-1-yl}-1H-indole], the melting point is 206 to 208 °C.
On to `Fc1ccc(OCCCCN2CCN(c3cccc4[nH]ccc34)CC2)c(Br)c1` (as salt: oxalate) [Compound 2d, 4-{4-[4-(2-Bromo-4-fluoro-phenoxy)-butyl]-piperazin-1-yl}-1H-indole], for which the melting point lay in the range of 218 to 220 °C.
As to `Cc1cccc(Cl)c1SCCCCN1CCN(c2cccc3[nH]ccc23)CC1` (as salt: oxalate) [Compound 2e, 4-{4-[4-(2-Chloro-6-methyl-phenylsulfanyl)-butyl]-piperazin-1-yl}-1H-indole], the melting point lay in the range of 199 to 210 °C.
With `Clc1cccc(Cl)c1SCCN1CCN(c2cccc3[nH]ccc23)CC1` (as salt: oxalate) [Compound 3b, 4-(4-[2-(2,6-Dichloro-phenylsulfanyl)-ethyl]-piperazin-1-yl)-1H-indole], the melting point was 130 to 133 °C (dec.).
For `Clc1ccc(SCCN2CCN(c3cccc4[nH]ccc34)CC2)cc1Cl` (as salt: oxalate) [Compound 3c, 4-{4-[2-(3,4-Dichloro-phenylsulfanyl)-ethyl]-piperazin-1-yl}-1H-indole], the melting point was 140 to 141 °C.
As for `Clc1ccccc1OCCCN1CCN(c2cccc3[nH]ccc23)CC1` [Compound 1, 4-{4-[3-(2-Chloro-phenoxy)-propyl]-piperazin-1-yl}-1H-indole], the melting point was 189 to 199 °C. Also, the IC50 in data set [1] (membranes of CHO-cells expressing human D4.2) was 92 nM. This molecule also gave an IC50 in data set [2] of 12 nM.
Take `COc1ccc(SCCCCN2CCN(c3cccc4[nH]ccc34)CC2)cc1OC` [Compound 5av, 4-{4-[4-(3,4-Dimethoxy-phenylsulfanyl)-butyl]-piperazin-1-yl}-1H-indole]: the inhibition at 0.1 µM in data set [1] stood at 107%. The inhibition at 0.05 µM in data set [2] was 69%.
For `FC(F)(F)c1ccc(SCCCN2CCN(c3cccc4[nH]ccc34)CC2)cc1` [Compound 5aw, 4-{4-[3-(4-Trifluoromethyl-phenylsulfanyl)-propyl]-piperazin-1-yl}-1H-indole], the inhibition at 0.1 µM in data set [1] came to 99%. Besides, the inhibition at 0.05 µM in data set [2] worked out at 98%.
For the molecule `FC(F)(F)Oc1ccc(SCCCN2CCN(c3cccc4[nH]ccc34)CC2)cc1` [Compound 5ax, 4-{4-[3-(4-Trifluoromethoxy-phenylsulfanyl)-propyl]-piperazin-1-yl}-1H-indole], in data set [1], the inhibition at 0.1 µM is 98%. Further, the inhibition at 0.05 µM in data set [2] was 81%.
Turning to `Brc1cccc(SCCCN2CCN(c3cccc4[nH]ccc34)CC2)c1` [Compound 5ay, 4-{4-[3-(3-Bromo-phenylsulfanyl)-propyl]-piperazin-1-yl}-1H-indole], in data set [1], the inhibition at 0.1 µM was determined as 105%. In addition, the inhibition at 0.05 µM in data set [2] worked out at 96%.
For `CC(C)c1ccccc1SCCCN1CCN(c2cccc3[nH]ccc23)CC1` [Compound 5az, 4-{4-[3-(2-Isopropyl-phenylsulfanyl)-propyl]-piperazin-1-yl}-1H-indole], in that order: 94% and 98%.
On to `COc1ccccc1OCCCCN1CCN(c2cccc3[nH]ccc23)CC1` [Compound 5ba, 4-{4-[4-(2-Methoxy-phenoxy)-butyl]-piperazin-1-yl}-1H-indole], for which the inhibition at 0.1 µM in data set [1] was found to be 80%. In addition, the inhibition at 0.05 µM in data set [2] was determined as 83%.
Turning to `CC(C)c1ccccc1SCCCCN1CCN(c2cccc3[nH]ccc23)CC1` [Compound 5bb, 4-{4-[4-(2-Isopropyl-phenylsulfanyl)-butyl]-piperazin-1-yl}-1H-indole], in data set [1], the inhibition at 0.1 µM amounted to 94%. Besides, the inhibition at 0.05 µM in data set [2] was 94%.

The record behind these values is patent US20030050307A1, “Novel indole derivatives” (H. Lundbeck A/S, priority 1999, published 2003).
